Data set [1] is described as follows: Shake-flask solubility with and without excipient (maleic/maleate buffers, HPLC quantification). Format: physicochemical. Conditions: 25 °C. On the procedure: Prior to performing the solubility measurements, maleic/maleate buffers were prepared as follows: a stock solution containing 55 mM maleic acid, 126 mM sodium chloride, and 82 mM NaOH (conditions that mimic the fed state of the intestinal fluid) was made following the guidelines of Biorelevant. Final buffers at pH 2, 5.8, and 6.5 were prepared by the addition of HCl or NaOH to three different aliquots of the stock solution. […] The weighed amount must be enough to obtain saturated solutions, which depends on the sample and pH of the buffer used. The samples were shaken for 24 h at 25 ± 0.5 °C, with a pH control of the solutions after 4 h of shaking. […] After shaking for 24 h, the samples were allowed to equilibrate for an additional 24 h. Subsequently, the final pH was measured, and phase separation was carried out via centrifugation. […] The quantification of the supernatant was performed by liquid chromatography under isocratic conditions using methanol/10 mM phosphate buffer at pH 7.5 as the mobile phase. […] The flow rate was set at 1 mL/min, with an injection volume of 10 μL. […] If necessary, an appropriate dilution in water of the saturated supernatant was carried out to ensure its fit in the range of calibration. The effect of a given excipient on the solubility of a drug depends on both the nature of the compound and the nature of the excipient used. To evaluate if the enhancement in solubility is significant with respect to the solubility in water when the excipients are added, the criterion of twice the standard deviation (sd) was applied. […] This value was chosen because it corresponds to an average standard deviation obtained in our laboratory for shake-flask solubility determinations and it also agrees with typical sd reported in the literature.

Details of data set [2]: method as in PMID 29481859. Conditions: I = 0.15 M, 25 °C; cited from earlier work.
Another data set can be described thus: physchem. It counts as physicochemical. The following applies: I = 0.15 M, 25 °C, standard deviation in parenthesis. How it is done: The pKa and logPo/w determinations were performed using the SiriusT3 titrator (Pion Inc.). The titrations were carried out from pH 12.0 to 2.0 due to the acidic nature of the drugs, at an ionic strength of 0.15 M (KCl), under an argon atmosphere and controlled temperature (25.0 ± 0.1 °C).
Octanol–water partition values, logPo/w, were obtained by potentiometric titrations in the presence of octanol at concentrations between 1.4 mM and 0.4 mM.

A short description of data set [3]: CheqSol potentiometric intrinsic solubility and supersaturation. It counts as physicochemical. The following applies: for pH range in which the drug precipitated from solution: CheqSol titration from pH 12.0 to low pH, with and without excipients; for time of supersaturation: with hydrophilic excipients; for ts, time of supersaturation: drug:excipient 1:1; for ts, time of supersaturation / solubility: 0.17 M KCl; for Rs, supersaturation ratio: Rs = Cmax/S0, S0 of the API in a medium without excipients; for solubility: aqueous titration solution, without excipient. The text has this: For the determination of the intrinsic solubility using the potentiometric method, two events must happen: First, the compound must be fully dissolved at the beginning of the titration. Second, the precipitation of the compound from the solution should occur close to the equivalent point of the titration curve. The amount of compound used in a CheqSol determination must be enough to achieve both events. […] All titrations started at pH 12.0, where the compounds were ionized and titrated to a low pH to force precipitation. […] At this point, the sample existed in a supersaturated or subsaturated state (i.e., chase equilibrium). The change between the subsaturated and supersaturated states was repeated several times to determine the intrinsic solubility by calculating the pH by interpolation between the two saturated states. The intrinsic solubility was calculated using the principles of mass and charge balance at the pH at which the equilibrium of the system was reached.
The CheqSol method not only provides the thermodynamic solubility of the neutral form (S0) of an ionizable compound but also the extent and time that a solution remains supersaturated before reaching S0. Both parameters are used to evaluate the supersaturation of a compound [10]. In this method, the experiment starts in conditions where the drug is completely ionized, and so, fully dissolved. Therefore, the concentration of the neutral species in solution is “zero”. The titration begins by titrating towards the pKa of the drug, to force precipitation as the neutral species starts to form. During this process, the concentration of the neutral species in solution increases to a maximum (Cmax) before the drug precipitates. When precipitation starts, it decreases dramatically to a much lower concentration to reach the intrinsic solubility. It must be noted that, before the drug precipitates, the solution is supersaturated. […] The supersaturation parameters can be obtained from the plot that monitors the concentration of neutral species in solution against time. […] The extent of the supersaturation corresponds to the maximum concentration of the neutral species in solution (Cmax) before the drug precipitates, and the duration of the supersaturation (ts) is the amount of time that the drug stays supersaturated until it reaches equilibrium solubility. In addition, the supersaturation ratio (Rs) can be calculated by dividing Cmax by the intrinsic solubility (S0).

Data set [4] in a line: Ionization degree at the studied pH according to pKa. Format: physicochemical. How it is done: Therefore, this pH value was also included in the study. […] When the solubility of the free drugs (without excipients) is evaluated, it can be observed that the intrinsic solubility is in agreement with their hydrophobicity (Table 1). […] Benzthiazide has an intermediate solubility. Moreover, as expected, the solubility of the compounds increases with the ionization degree. […] Here, a slight increase is observed.

Data set [5] in a line: pKa determination, spectrometric UV-metric titration (SiriusT3). It counts as physicochemical. The following applies: aqueous 0.15 M KCl solution; I = 0.15 M, 25 °C; standard deviation in parenthesis; read-out: pKa (second value). On the procedure: The pKa and logPo/w determinations were performed using the SiriusT3 titrator (Pion Inc.). […] For the analysis, 5 μL of a 10 mM DMSO sample stock solution, and 25 μL of a 15 mM potassium phosphate buffer, were added to 1.5 mL of a 0.15 M KCl solution. The UV-metric titration method used the UV absorbance changes in the aromatic groups close to the ionizable groups of the substance as a function of pH [30]. […] Results are the mean value from four triple titrations.

[6] abbreviates: pH 2, Captisol, 1:1 excipient:API weight ratio.
Where [7] appears, read: pH 2, Cavasol, 1:1 excipient:API weight ratio.
[8] abbreviates: pH 2, Klucel, 1:1 excipient:API weight ratio.
Where [9] appears, read: pH 2, Kollidon, 1:1 excipient:API weight ratio.
[10] abbreviates: pH 2, S630, 1:1 excipient:API weight ratio.
Where [11] appears, read: pH 5.8, Captisol, 1:1 excipient:API weight ratio.
Setting [12] is: pH 5.8, Cavasol, 1:1 excipient:API weight ratio.
Setting [13] is: pH 5.8, Klucel, 1:1 excipient:API weight ratio.
Where [14] appears, read: pH 5.8, Kollidon, 1:1 excipient:API weight ratio.
[15] abbreviates: pH 5.8, S630, 1:1 excipient:API weight ratio.
[16] abbreviates: pH 6.5, Captisol, 1:1 excipient:API weight ratio.
Where [17] appears, read: pH 6.5, Cavasol, 1:1 excipient:API weight ratio.
Setting [18] is: pH 6.5, Klucel, 1:1 excipient:API weight ratio.
[19] abbreviates: pH 6.5, Kollidon, 1:1 excipient:API weight ratio.
Where [20] appears, read: pH 6.5, S630, 1:1 excipient:API weight ratio.
Where [21] appears, read: CheqSol, 25 °C, standard deviation in parenthesis.
The mark [22] stands for this setting: standard deviation in parenthesis.
The mark [23] stands for this setting: thermodynamic from solid, CheqSol, 25 °C, standard deviation in parenthesis, read-out: log S0 (intrinsic solubility) (converted).

≈ marks a conversion by molar mass, not a printed value. Where two headings read alike, the source gives them in different places.

What is called logP is a log measure of how a compound divides between an organic and an aqueous phase. Usually solubility stands for the dissolved amount per volume that the medium holds. Broadly, the pKa is the pH at which an ionisable group is half protonated.

For the compound `NS(=O)(=O)c1cc2c(cc1Cl)N=C(CSCc1ccccc1)NS2(=O)=O` [Benzthiazide], the SEXC/SAPI in data set [1] (setting [6]) stood at 1.14; in data set [1] (setting [7]), 0.97; in data set [1] (setting [8]), 1.20; in data set [1] (setting [9]), 1.29; in data set [1] (setting [10]) it was 1.61; in data set [1] (setting [11]) it was 1.09. Besides, the SEXC/SAPI was 0.83 in data set [1] (setting [12]); 1.12 in data set [1] (setting [13]); 1.21 in data set [1] (setting [14]); 1.49 in data set [1] (setting [15]); 1.29 in data set [1] (setting [16]); 0.98 in data set [1] (setting [17]). The figures for the SEXC/SAPI in data set [1] (setting [18]), in data set [1] (setting [19]) and in data set [1] (setting [20]) were 1.15, 1.24 and 1.28, respectively. Further, the “pKa (first value)” value in data set [2] is reported as 6.64. In addition, in data set [2], the “pKa (second value)” value is 9.22. In addition, the logP in “physchem” (octanol/water) was 1.89. Further, in data set [3], the “pH range in which the drug precipitated from solution” value (“pH range” below) is reported as 6.6–8.7 pH. For the same compound, in data set [3] (CheqSol), the time of supersaturation is given as ~ 20 min. In data set [3] (setting [21]), the “ts, time of supersaturation” value is on record as 6 (1) min. Besides, the “Rs, supersaturation ratio” value in data set [3] (setting [22]) was 4 (1). Besides, the solubility in data set [3] (setting [23]) is 11.2 µM (≈ 4.85 µg/mL). For the same compound, the “Rs, fold higher” value in data set [3] (in the presence of klucel and plasdone S630) is recorded as 40 fold; in data set [3] (in the presence of kollidon), 100 fold. For the same compound, in data set [4] (pH 6.5, anionic form), the ionization degree entry was “around 40%”.

On to `Cc1cc(NC(=O)C2=C(O)c3ccccc3S(=O)(=O)N2C)no1` [Isoxicam], for which the SEXC/SAPI turned out to be 1.48 in data set [1] (setting [6]); 1.45 in data set [1] (setting [7]); 1.50 in data set [1] (setting [8]); 1.47 in data set [1] (setting [9]); 1.81 in data set [1] (setting [10]); 1.44 in data set [1] (setting [11]). The SEXC/SAPI in data set [1] (setting [12]) was determined as 1.56; in data set [1] (setting [13]) it was 1.93; in data set [1] (setting [14]), 1.88; in data set [1] (setting [15]), 1.96; in data set [1] (setting [16]) it was 1.52; in data set [1] (setting [17]), 1.61. Also, the SEXC/SAPI is on record as 1.84 in data set [1] (setting [18]), 1.93 in data set [1] (setting [19]) and 1.73 in data set [1] (setting [20]). The logP in “physchem” (octanol/water) was 2.99. Also, the “pH range” value in data set [3] is listed as 3.7–6.7 pH. The “time the initial metastable form is stabilized” value in data set [3] (CheqSol, in the presence of klucel) is reported as “around 16 min”. Also, the time of supersaturation in data set [3] (CheqSol) is ~ 20 min. Besides, the “ts, time of supersaturation” value was 11 (3) min in data set [3] (setting [21]) and 11 min in data set [3] (CheqSol, 25 °C, standard deviation in parenthesis, listed as isoxicam). For the same compound, the “Rs, supersaturation ratio” value is recorded as 48 (4) in data set [3] (setting [22]) and 48 in data set [3] (standard deviation in parenthesis, listed as isoxicam). For the same compound, the solubility was 1.88 µM (≈ 0.63 µg/mL) in data set [3] (CheqSol, Figure 2A, read-out: Intrinsic solubility) and 1.91 µM (≈ 0.639 µg/mL) in data set [3] (setting [23]). Further, the ionization degree result is recorded as “fully ionized” in data set [4] (pH 5.8, anionic form); around 100% in data set [4] (pH 5.8, anionic form, listed as isoxicam); around 100% in data set [4] (pH 6.5, anionic form).

With `CN1C(C(=O)Nc2ccccn2)=C(O)c2ccccc2S1(=O)=O` [Piroxicam], in “physchem”, the logP turned out to be 1.71. In addition, the “pH range” value in data set [3] is listed as 5.7–6.7 pH. In data set [3] (CheqSol), the time of supersaturation is given as ~ 10 min. Also, the “ts, time of supersaturation” value in data set [3] (setting [21]) is 7 (1) min. Besides, the solubility in data set [3] (setting [23]) is 21.4 µM (≈ 7.08 µg/mL). Also, the ionization degree result in data set [4] (pH 2, cationic form, positively charged) is reported as “around 40%”; in data set [4] (pH 5.8, anionic form), 75%; in data set [4] (pH 6.5, anionic form), 96%. Further, the pKa in data set [5] is 5.34.

The values above are taken from publication PMC12114812 (Pharmaceutics, 2025).
